Reference: patent US20110015080A1, “Solution-based methods for RNA expression profiling” (MASSACHUSETTS INSTITUTE OF TECHNOLOGY, priority 2005, published 2011)
Values joined by “and” are separate entries in the source; they are usually repeats but may differ in a detail not shown here. Identical values can stand only once.

Test system: HL60 (human promyelocytic leukemia) cells
Assay: LMA-FlexMAP bead-based gene expression signature analysis of total RNA from HL60 cells treated with tretinoin or DMSO (ninety transcripts); on NM 000884 LUA#81 FlexMAP signal: test concentration or dose not given here; on NM 001469 LUA#79 FlexMAP signal: test concentration or dose not given here

Compound: CC1=C(/C=C/C(C)=C/C=C/C(C)=C/C(=O)O)C(C)(C)CCC1 [tretinoin, all-trans-retinoic acid]
- ACTB LUA#91 FlexMAP signal (Experiment 1, tretinoin-treated HL60, transcript ACTB, replicate columns): 2313 and 2609 and 1929 and 2483 and 818 and 2425.5 and 2563 and 1173 and 2347 and 2296.5
- GAPDH_3 LUA#95 FlexMAP signal (Experiment 1, tretinoin-treated HL60, transcript GAPDH_3, replicate columns): 2580 and 2982 and 2428 and 2979 and 1102.5 and 2911 and 2912 and 1645 and 2823 and 2559
- GAPDH_5 LUA#93 FlexMAP signal (Experiment 1, tretinoin-treated HL60, transcript GAPDH_5, replicate columns): 1299 and 1629 and 998.5 and 1419 and 378.5 and 1433 and 1505.5 and 632 and 1469 and 1347
- GAPDH_M LUA#94 FlexMAP signal (Experiment 1, tretinoin-treated HL60, transcript GAPDH_M, replicate columns): 1360.5 and 1575 and 1134 and 1511.5 and 460 and 1520 and 1502 and 698.5 and 1462 and 1334
- NM_000147 LUA#29 FlexMAP signal (Experiment 1, tretinoin-treated HL60, transcript NM_000147, replicate columns): 764 and 894 and 573 and 861 and 195.5 and 822.5 and 850 and 302 and 783 and 763
- NM_000211 LUA#39 FlexMAP signal (Experiment 1, tretinoin-treated HL60, transcript NM_000211, replicate columns): 1294.5 and 1488 and 1125 and 1420 and 454.5 and 1349 and 1366.5 and 682 and 1361 and 1315
- NM_000250 LUA#87 FlexMAP signal (Experiment 1, tretinoin-treated HL60, transcript NM_000250, replicate columns): 164 and 198 and 194 and 74 and 177 and 187 and 95.5 and 173 and 166
- NM_000414 LUA#22 FlexMAP signal (Experiment 1, tretinoin-treated HL60, transcript NM_000414, replicate columns): 372.5 and 470.5 and 270 and 442 and 100 and 408.5 and 415 and 145 and 402.5 and 373
- NM_000433 LUA#28 FlexMAP signal (Experiment 1, tretinoin-treated HL60, transcript NM_000433, replicate columns): 536.5 and 647 and 442.5 and 640 and 144 and 605 and 622 and 228.5 and 564 and 532
- NM_000584 LUA#30 FlexMAP signal (Experiment 1, tretinoin-treated HL60, transcript NM_000584, replicate columns): 1765 and 2115 and 1464 and 1938.5 and 476 and 1981.5 and 1945 and 799.5 and 1938 and 1717
- NM_000884 LUA#81 FlexMAP signal (Experiment 1, tretinoin-treated HL60, transcript NM_000884, replicate columns): 799 (2×) and 946 and 676 and 871.5 and 250 and 871 and 865 and 389 and 830.5
- NM_001034 LUA#67 FlexMAP signal (Experiment 1, tretinoin-treated HL60, transcript NM_001034, replicate columns): 191 and 243 and 157 and 225 and 73 and 209 and 212.5 and 92 and 219 and 185
- NM_001101 LUA#34 FlexMAP signal (Experiment 1, tretinoin-treated HL60, transcript NM_001101, replicate columns): 2722 and 3119.5 and 2773 and 2969.5 and 1490 and 2968.5 and 2890 and 1977 and 2893.5 and 2694
- NM_001469 LUA#79 FlexMAP signal (Experiment 1, tretinoin-treated HL60, transcript NM_001469, replicate columns): 1076 and 1221 and 809 and 1179 (2×) and 284 and 1191 and 463 and 1140.5 and 1077
- NM_001498 LUA#18 FlexMAP signal (Experiment 1, tretinoin-treated HL60, transcript NM_001498, replicate columns): 361 and 424 and 279 and 402 and 96 and 374 and 412 and 140 and 360 and 335.5
- NM_001684 LUA#23 FlexMAP signal (Experiment 1, tretinoin-treated HL60, transcript NM_001684, replicate columns): 69 and 68 and 54 and 66.5 and 41 and 65 (2×) and 43 and 61 and 63
- NM_001948 LUA#84 FlexMAP signal (Experiment 1, tretinoin-treated HL60, transcript NM_001948, replicate columns): 58 and 75 and 61 and 73 and 47 and 63 and 71 and 51 and 76 and 66
- NM_002166 LUA#25 FlexMAP signal (Experiment 1, tretinoin-treated HL60, transcript NM_002166, replicate columns): 154 and 180 and 124.5 and 159.5 and 61 and 168 and 159 and 79.5 and 156.5 and 152
- NM_002467 LUA#90 FlexMAP signal (Experiment 1, tretinoin-treated HL60, transcript NM_002467, replicate columns): 1030 and 801 and 702 and 736 and 256 and 792.5 and 842.5 and 399 and 957 and 976
- NM_002468 LUA#40 FlexMAP signal (Experiment 1, tretinoin-treated HL60, transcript NM_002468, replicate columns): 418 and 492 and 325 and 448.5 and 121 and 496.5 and 473 and 174.5 and 426.5 and 399.5
- NM_002539 LUA#74 FlexMAP signal (Experiment 1, tretinoin-treated HL60, transcript NM_002539, replicate columns): 276 and 362 and 231 and 326 and 85 and 313 and 314.5 and 131 and 300 and 281.5
- NM_002624 LUA#36 FlexMAP signal (Experiment 1, tretinoin-treated HL60, transcript NM_002624, replicate columns): 1288 and 1492.5 and 1267 and 1418 and 576 and 1447 and 1402 and 820 and 1224.5
- NM_002664 LUA#38 FlexMAP signal (Experiment 1, tretinoin-treated HL60, transcript NM_002664, replicate columns): 2325 and 2761 and 2157 and 2552 and 892 and 2527 and 2504 and 1337 and 2394 and 2330
- NM_002970 LUA#42 FlexMAP signal (Experiment 1, tretinoin-treated HL60, transcript NM_002970, replicate columns): 1455 and 1683.5 and 1181 and 1595 and 400 and 1478 and 1584 and 651 and 1503 and 1459
- NM_002982 LUA#45 FlexMAP signal (Experiment 1, tretinoin-treated HL60, transcript NM_002982, replicate columns): 3488 and 3786 and 3231 and 3797 and 1738 and 3852 and 3752 and 2466 and 3667 and 3451
- NM_003132 LUA#68 FlexMAP signal (Experiment 1, tretinoin-treated HL60, transcript NM_003132, replicate columns): 488 (2×) and 596 and 410 and 540 and 148 and 523 and 517 and 212 and 467.5
- NM_003172 LUA#19 FlexMAP signal (Experiment 1, tretinoin-treated HL60, transcript NM_003172, replicate columns): 243 and 276 and 208 and 286 and 86 and 264 and 257 and 121 and 260 and 235
- NM_003332 LUA#43 FlexMAP signal (Experiment 1, tretinoin-treated HL60, transcript NM_003332, replicate columns): 2387.5 and 2641 and 2219 and 2571.5 and 1100 and 2688.5 and 2573.5 and 1470 and 2528 and 2325
- NM_003581 LUA#62 FlexMAP signal (Experiment 1, tretinoin-treated HL60, transcript NM_003581, replicate columns): 53 and 57 and 147 and 80 and 50 (2×) and 65 and 52 and 43 and 42
- NM_003644 LUA#17 FlexMAP signal (Experiment 1, tretinoin-treated HL60, transcript NM_003644, replicate columns): 282 and 272 and 195.5 and 252 and 105 and 266.5 and 259 and 142 and 271.5 and 260
- NM_003752 LUA#82 FlexMAP signal (Experiment 1, tretinoin-treated HL60, transcript NM_003752, replicate columns): 130.5 and 145.5 and 114 and 144.5 and 71 and 128.5 and 142 and 94 and 137.5 and 124.5
- NM_003879 LUA#24 FlexMAP signal (Experiment 1, tretinoin-treated HL60, transcript NM_003879, replicate columns): 72.5 and 77.5 and 57 and 80 (2×) and 41 and 71 and 76 and 53 and 67
- NM_004079 LUA#21 FlexMAP signal (Experiment 1, tretinoin-treated HL60, transcript NM_004079, replicate columns): 113 and 129 and 93 and 124.5 and 55 and 127 and 122 and 70 and 125.5 and 99.5
- NM_004095 LUA#59 FlexMAP signal (Experiment 1, tretinoin-treated HL60, transcript NM_004095, replicate columns): 203 and 247 and 148 and 227 and 78 and 212 (2×) and 101 and 214.5 and 194.5
- NM_004106 LUA#44 FlexMAP signal (Experiment 1, tretinoin-treated HL60, transcript NM_004106, replicate columns): 1187 and 1452 and 994 and 1303 and 373 and 1308 and 1315 and 576.5 and 1274.5 and 1218
- NM_004134 LUA#76 FlexMAP signal (Experiment 1, tretinoin-treated HL60, transcript NM_004134, replicate columns): 278 and 318 and 207 and 277 and 83.5 and 292 and 306 and 111 and 280 and 266.5
- NM_004152 LUA#31 FlexMAP signal (Experiment 1, tretinoin-treated HL60, transcript NM_004152, replicate columns): 1944 and 2194 and 1662 and 2073 and 775 and 2127.5 and 2117 and 1110 and 2045 and 1823
- NM_004526 LUA#88 FlexMAP signal (Experiment 1, tretinoin-treated HL60, transcript NM_004526, replicate columns): 192 and 223 and 150 and 213 and 77 and 208 and 192.5 and 101 and 206.5 and 182.5
- NM_004602 LUA#32 FlexMAP signal (Experiment 1, tretinoin-treated HL60, transcript NM_004602, replicate columns): 215.5 and 258 and 182 and 239 and 88 and 232.5 and 227.5 and 113.5 and 224 and 212
- NM_004723 LUA#20 FlexMAP signal (Experiment 1, tretinoin-treated HL60, transcript NM_004723, replicate columns): 380 and 446 and 318 and 394 and 127 and 418.5 and 388.5 and 184 and 400 and 363.5
- NM_004741 LUA#89 FlexMAP signal (Experiment 1, tretinoin-treated HL60, transcript NM_004741, replicate columns): 205 and 208 and 168 and 215 and 100 and 204 and 198 and 116 and 214 and 204.5
- NM_004759 LUA#37 FlexMAP signal (Experiment 1, tretinoin-treated HL60, transcript NM_004759, replicate columns): 116 and 149.5 and 148 and 139.5 and 53 and 128 and 141 and 67 and 134 and 103
- NM_005008 LUA#77 FlexMAP signal (Experiment 1, tretinoin-treated HL60, transcript NM_005008, replicate columns): 343 and 416 and 307 and 392 and 123 and 401 and 382.5 and 167 and 372 and 338.5
- NM_005375 LUA#86 FlexMAP signal (Experiment 1, tretinoin-treated HL60, transcript NM_005375, replicate columns): 780.5 and 638 and 523 and 594.5 and 238 and 631.5 and 617 and 351 and 734 and 717
- NM_005566 LUA#85 FlexMAP signal (Experiment 1, tretinoin-treated HL60, transcript NM_005566, replicate columns): 540 and 632.5 and 583.5 and 642 and 150 and 607 and 596 and 219 and 577 and 523.5
- NM_005914 LUA#60 FlexMAP signal (Experiment 1, tretinoin-treated HL60, transcript NM_005914, replicate columns): 881.5 and 948 and 566.5 and 843 and 209 and 866 and 848.5 and 351 and 885 and 795
- NM_005915 LUA#72 FlexMAP signal (Experiment 1, tretinoin-treated HL60, transcript NM_005915, replicate columns): 44 (2×) and 59 and 39 and 54 and 34.5 and 56 and 41 and 51 and 47
